# Values of other authors as cited in patent US20050221324A1, “Genotoxicity analysis” (priority 2002, published 2005).
# Tested on: AL cells
# Details: producing mainly chromosomal mutations; non-genotoxic carcinogens
substance,measurement,value
arsenic,mutagenicity in AL cells,quite strong mutagens
